Assay results from patent US20250221982A1, “COMPOSITIONS AND METHODS FOR LOCAL DELIVERY OF PHARMACEUTICAL AGENTS TO TREAT CANCER” (The General Hospital Corporation, priority 2018, published 2025).

How the values were obtained:
[1] = tested on: PyMTtg primary breast cancer cells; test: Topical treatment of subcutaneous PyMTtg breast cancer tumors in mice; type: in vivo, mouse (wild-type C57BL/6); settings: two topical applications; calcipotriene 80 nmol, imiquimod 5% cream; compared to EtOH plus control cream; p=0.011 for the combination
From the text: PyMTtg primary breast cancer cells are implanted subcutaneously into the inguinal regions of wild-type C57BL/6 mice. When tumors reached 5 mm in diameter (day 13), the following topical treatments applied to the tumor sites twice: (a) 80nmol calcipotriene in 20 microliters of 100% EtOH followed by 5% imiquimod cream, (b) 80nmol calcipotriene in 20 microliter 100% EtOH followed by moisturizing (control) cream, (c) 20 microliter 100% EtOH followed by 5% imiquimod cream, and (d) 20 microliter 100% EtOH followed by moisturizing (control) cream.
Breast cancer cells were obtained from PyMTtg mice that develop spontaneous breast cancer resembling luminal type of breast cancer in humans^12. Breast cancers of PyMTtg mice were harvested before the tumors reached 2 cm in diameter. Cancers were excised and dissociated into single cell suspension. Breast cancer cells were re-suspended at a concentration of 1×10^6 cells per 100 μl of 1:1 ratio of RPMI and Matrigel Membrane Matrix (Corning). Inguinal regions of recipient mice were shaved prior to cancer cell injection. 1×10^6 cells were injected subcutaneously at day 0. Topical treatments were applied when tumor sizes reached 5 mm in diameter. […] Animals were monitored daily and tumors measured over time to determine the impact of topical treatments on breast cancer growth. […]

B16-F10 melanoma cells = test: Topical calcipotriene plus IP DMXAA against subcutaneous B16-F10 melanoma in mice; type: in vivo, mouse (wild-type C57BL/6); settings: for T cell (CD3+CD19−) infiltrate within the treated melanoma tumors / proliferation (Ki67+) of CD4+ and CD8+ tumor infiltrating T lymphocytes (melanoma tumors): flow cytometry at harvest; for cutaneous melanoma growth (tumor volume over time): three applications, topical calcipotriene 40 nmol, IP DMXAA 400 μg, compared to EtOH plus saline, p=0.019 for the combination
Procedure: (2A) Schematic diagram of the experimental protocol used to determine the efficacy of calcipotriene plus DMXAA as a localized immunotherapy for melanoma. B16-F10 melanoma cells are implanted subcutaneously into the flanks of wild-type C57BL/6 mice. When tumors reached 5 mm in diameter (day 14), the following treatments were applied three times: (a) 40 nmol calcipotriene in 20 microliters of 100% EtOH followed by IP injection of 400 μg DMXAA in 100 μl saline, (b) 40nmol calcipotriene in 20 microliters of 100% EtOH followed by IP injection of 100 μl saline, (c) 20 microliters of 100% EtOH followed by IP injection of 400 μg DMXAA in 100 μl saline, and (d) 20 microliter 100% EtOH followed by IP injection of 100 μl saline.
Melanoma Cells (B16-F10, ATCC, Manassas, VA) were injected subcutaneously into flanks of mice at 2×10^5 cells per 100 μl of 1:1 ratio of DMEM (Corning) at day 0. Flank regions of recipient mice were shaved prior to cancer cell injection. Topical treatment with calcipotriene or EtOH together with intraperitoneal (IP) injection of DMXAA (murine STING agonist, 5,6-Dimethylxanthenone-4-acetic Acid, ASA404, or Vadimezan) or normal saline were initiated when tumor sizes reached 5 mm in diameter. Mice were divided into 4 groups and were treated topically with either calcipotriene (40 nmol) or ethanol (EtOH) as carrier directly on the tumor sites. Following treatment of either calcipotriene or EtOH (control), mice were injected IP with either 400 μg DMXAA in 100 μl normal saline or normal saline alone (control). Calcipotriene/EtOH and DMXAA/saline treatments were re-applied two more times (FIG. 2A). Animals were monitored daily and tumors measured over time to determine the impact of treatments on melanoma growth. At harvest, tumors were weighed, and the tumor infiltrating T cells were profiled using flow cytometry.

Row | SMILES | cutaneous breast tumor growth (tumor volume over time) [1] | T cell (CD3+CD19−) infiltrate within the treated melanoma tumors (B16-F10 melanoma cells) | proliferation (Ki67+) of CD4+ and CD8+ tumor infiltrating T lymphocytes (melanoma tumors) (B16-F10 melanoma cells) | cutaneous melanoma growth (tumor volume over time) (B16-F10 melanoma cells)
1 | CC(C)Cn1cnc2c(N)nc3ccccc3c21 [imiquimod] | did not show a significant impact on breast cancer growth |  |  | 
2 | Cc1ccc2c(=O)c3cccc(CC(=O)O)c3oc2c1C [DMXAA, 5,6-Dimethylxanthenone-4-acetic Acid] |  | absent | absent | did not show a significant impact on melanoma development
3 | C=C1/C(=C\C=C2/CCC[C@]3(C)[C@@H]([C@H](C)/C=C/[C@@H](O)C4CC4)CC[C@@H]23)C[C@@H](O)C[C@@H]1O [calcipotriene] | did not show a significant impact on breast cancer growth | absent | absent | showed efficacy in inhibiting melanoma growth
